Values of other authors, collected in patent US4665052A, “Renin inhibitors containing homophe^8 and a C-terminal amide cycle” (Merck & Co., Inc., priority 1984, dated 1987).

Assays:
[1] = system: aspartyl proteases such as pepsin, cathepsin D, and renin; conditions: selectivity
hog renin = conditions: after injection of hog renin into nephrectomized rats; Gross et al. 1971

## pepstatin
[1]
  inhibition of other acid proteases in addition to renin: inhibition of a variety of other acid proteases in addition to renin
Hog renin
  blood pressure in vivo: reduce blood pressure in vivo
